In ChEMBL document CHEMBL1201862, “PubChem BioAssay data set” (2004):
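Briefly, cells in 96-well plates were exposed to five compound concentrations for 48 h, and endpoints were estimated by linear interpolation. GI50: concentration for 50% inhibition of growth.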 Activity calls are given as the source filed them. No stated cut-off is given here; in the data, active = GI50 up to about 1.1 µM and inactive = higher.

Legend:
Assay in all cases: NCI-60 cell line screen, 48 h
TK-10 = system: TK-10
SR = system: SR
SNB-75 = system: SNB-75
HCT-15 = system: HCT-15
SK-MEL-5 = system: SK-MEL-5
CCRF-CEM = system: CCRF-CEM
OVCAR-4 = system: OVCAR-4
KM12 = system: KM12
CAKI-1 = system: CAKI-1
SK-OV-3 = system: SK-OV-3
ACHN = system: ACHN
LOX IMVI = system: LOX IMVI
HCT-116 = system: HCT-116
SK-MEL-28 = system: SK-MEL-28
A549 = system: A549
SF-295 = system: SF-295
RPMI-8226 = system: RPMI-8226
UACC-62 = system: UACC-62
M14 = system: M14
NCI-H23 = system: NCI-H23
COLO 205 = system: COLO 205
LXFL 529 = system: LXFL 529
NCI-H226 = system: NCI-H226
MOLT-4 = system: MOLT-4
DMS-273 = system: DMS-273
U-251 = system: U-251
M19-MEL = system: M19-MEL
UO-31 = system: UO-31
RXF 393 = system: RXF 393
IGROV-1 = system: IGROV-1
HOP-18 = system: HOP-18
Malme-3M = system: Malme-3M
DMS-114 = system: DMS-114
786-0 = system: 786-0
HL-60 = system: HL-60
UACC-257 = system: UACC-257
SN12C = system: SN12C
OVCAR-5 = system: OVCAR-5
HT-29 = system: HT-29
SF-268 = system: SF-268
SK-MEL-2 = system: SK-MEL-2
SW-620 = system: SW-620
NCI-H522 = system: NCI-H522
NCI-H460 = system: NCI-H460
SF-539 = system: SF-539
OVCAR-8 = system: OVCAR-8
HOP-92 = system: HOP-92
K562 = system: K562
DLD-1 = system: DLD-1
HOP-62 = system: HOP-62
XF498 = system: XF498
A498 = system: A498
SNB-19 = system: SNB-19
EKVX = system: EKVX
SNB-78 = system: SNB-78
OVCAR-3 = system: OVCAR-3

Cc1ccc(F)c2c(=O)cc(-c3ccccc3)[nH]c12
GI50 (TK-10): > 100 µM (inactive)
GI50 (SR): 50.5 µM (inactive)
GI50 (SNB-75): 26 µM (inactive)
GI50 (HCT-15): > 100 µM
GI50 (SK-MEL-5): 87.5 µM (inactive)
GI50 (CCRF-CEM): > 100 µM (inactive)
GI50 (OVCAR-4): > 100 µM (inactive)
GI50 (KM12): 98.2 µM (inactive)
GI50 (CAKI-1): > 100 µM (inactive)
GI50 (SK-OV-3): > 100 µM (inactive)
GI50 (ACHN): > 100 µM (inactive)
GI50 (LOX IMVI): > 100 µM (inactive)
GI50 (HCT-116): > 100 µM (inactive)
GI50 (SK-MEL-28): > 100 µM (inactive)
GI50 (A549): > 100 µM (inactive)
GI50 (SF-295): > 100 µM (inactive)
GI50 (RPMI-8226): > 100 µM (inactive)
GI50 (UACC-62): > 100 µM (inactive)
GI50 (M14): > 100 µM (inactive)
GI50 (NCI-H23): > 100 µM (inactive)
GI50 (COLO 205): > 100 µM (inactive)
GI50 (LXFL 529): > 100 µM (inactive)
GI50 (NCI-H226): 63 µM (inactive)
GI50 (MOLT-4): > 100 µM (inactive)
GI50 (DMS-273): 94.6 µM (inactive)
GI50 (U-251): > 100 µM (inactive)
GI50 (M19-MEL): > 100 µM (inactive)
GI50 (UO-31): 60.3 µM (inactive)
GI50 (RXF 393): > 100 µM (inactive)
GI50 (IGROV-1): > 100 µM (inactive)
GI50 (HOP-18): > 100 µM (inactive)
GI50 (Malme-3M): > 100 µM (inactive)
GI50 (DMS-114): > 100 µM (inactive)
GI50 (786-0): > 100 µM (inactive)
GI50 (HL-60): > 100 µM (inactive)
GI50 (UACC-257): > 100 µM (inactive)
GI50 (SN12C): > 100 µM (inactive)
GI50 (OVCAR-5): > 100 µM (inactive)
GI50 (HT-29): > 100 µM (inactive)
GI50 (SF-268): > 100 µM (inactive)
GI50 (SK-MEL-2): > 100 µM (inactive)
GI50 (SW-620): > 100 µM (inactive)
GI50 (NCI-H522): > 100 µM (inactive)
GI50 (NCI-H460): > 100 µM (inactive)
GI50 (SF-539): > 100 µM (inactive)
GI50 (OVCAR-8): > 100 µM (inactive)
GI50 (HOP-92): > 100 µM (inactive)
GI50 (K562): > 100 µM (inactive)
GI50 (DLD-1): > 100 µM (inactive)
GI50 (HOP-62): > 100 µM (inactive)

O=C1NC2(CCCC2)/C(=N\O)C12CCCC2
GI50 (TK-10): > 100 µM (inactive)
GI50 (SR): > 100 µM (inactive)
GI50 (SNB-75): > 100 µM (inactive)
GI50 (HCT-15): > 100 µM
GI50 (XF498): > 100 µM (inactive)
GI50 (SK-MEL-5): > 100 µM (inactive)
GI50 (A498): > 100 µM (inactive)
GI50 (CCRF-CEM): > 100 µM (inactive)
GI50 (OVCAR-4): > 100 µM (inactive)
GI50 (KM12): > 100 µM (inactive)
GI50 (CAKI-1): > 100 µM (inactive)
GI50 (SK-OV-3): > 100 µM (inactive)
GI50 (ACHN): > 100 µM (inactive)
GI50 (LOX IMVI): > 100 µM (inactive)
GI50 (HCT-116): > 100 µM (inactive)
GI50 (SK-MEL-28): > 100 µM (inactive)
GI50 (SNB-19): > 100 µM (inactive)
GI50 (A549): > 100 µM (inactive)
GI50 (SF-295): > 100 µM (inactive)
GI50 (UACC-62): > 100 µM (inactive)
GI50 (M14): > 100 µM (inactive)
GI50 (NCI-H23): > 100 µM (inactive)
GI50 (COLO 205): > 100 µM (inactive)
GI50 (LXFL 529): > 100 µM (inactive)
GI50 (MOLT-4): > 100 µM (inactive)
GI50 (DMS-273): > 100 µM (inactive)
GI50 (U-251): > 100 µM (inactive)
GI50 (M19-MEL): > 100 µM (inactive)
GI50 (UO-31): > 100 µM (inactive)
GI50 (RXF 393): > 100 µM (inactive)
GI50 (IGROV-1): > 100 µM (inactive)
GI50 (EKVX): > 100 µM (inactive)
GI50 (HOP-18): > 100 µM (inactive)
GI50 (Malme-3M): > 100 µM (inactive)
GI50 (DMS-114): > 100 µM (inactive)
GI50 (786-0): > 100 µM (inactive)
GI50 (HL-60): > 100 µM (inactive)
GI50 (SNB-78): > 100 µM (inactive)
GI50 (UACC-257): > 100 µM (inactive)
GI50 (SN12C): > 100 µM (inactive)
GI50 (OVCAR-5): > 100 µM (inactive)
GI50 (HT-29): > 100 µM (inactive)
GI50 (OVCAR-3): > 100 µM (inactive)
GI50 (SF-268): > 100 µM (inactive)
GI50 (SK-MEL-2): > 100 µM (inactive)
GI50 (SW-620): > 100 µM (inactive)
GI50 (NCI-H522): > 100 µM (inactive)
GI50 (NCI-H460): > 100 µM (inactive)
GI50 (SF-539): > 100 µM (inactive)
GI50 (OVCAR-8): > 100 µM (inactive)
GI50 (HOP-92): > 100 µM (inactive)
GI50 (K562): > 100 µM (inactive)
GI50 (DLD-1): > 100 µM (inactive)
GI50 (HOP-62): > 100 µM (inactive)
